Data taken from ChEMBL document CHEMBL1201862, “PubChem BioAssay data set” (2004).
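The compound was tested at five concentrations on cells cultured in 96-well plates, with a 48-hour exposure period. GI50: concentration for 50% inhibition of growth.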 Active and inactive are the calls of the source. Cut-off read from the data, not from the text of the source: active = GI50 up to about 1.1 µM and inactive = higher.

How the values were obtained:
Experiment in all cases: NCI tumour cell line growth inhibition, 48 h
[1] = test system: 786-0
[2] = test system: A498
[3] = test system: A549
[4] = test system: ACHN
[5] = test system: BT-549
[6] = test system: COLO 205
[7] = test system: DU-145
[8] = test system: EKVX
[9] = test system: HCT-116
[10] = test system: HCT-15
[11] = test system: HL-60
[12] = test system: HOP-62
[13] = test system: HOP-92
[14] = test system: HT-29
[15] = test system: Hs-578T
[16] = test system: IGROV-1
[17] = test system: K562
[18] = test system: KM12
[19] = test system: LOX IMVI
[20] = test system: M14
[21] = test system: MCF7
[22] = test system: MDA-MB-231
[23] = test system: MDA-N
[24] = test system: MOLT-4
[25] = test system: Malme-3M
[26] = test system: NCI-H226
[27] = test system: NCI-H23
[28] = test system: NCI-H460
[29] = test system: NCI-H522
[30] = test system: NCI/ADR-RES
[31] = test system: OVCAR-3
[32] = test system: OVCAR-4
[33] = test system: OVCAR-5
[34] = test system: OVCAR-8
[35] = test system: PC-3
[36] = test system: RPMI-8226
[37] = test system: RXF 393
[38] = test system: SF-268
[39] = test system: SF-295
[40] = test system: SF-539
[41] = test system: SK-MEL-28
[42] = test system: SK-MEL-2
[43] = test system: SK-MEL-5
[44] = test system: SK-OV-3
[45] = test system: SN12C
[46] = test system: SNB-19
[47] = test system: SNB-75
[48] = test system: SR
[49] = test system: SW-620
[50] = test system: T47D
[51] = test system: TK-10
[52] = test system: U-251
[53] = test system: UACC-257
[54] = test system: UACC-62
[55] = test system: UO-31
[56] = test system: CAKI-1
[57] = test system: CCRF-CEM
[58] = test system: HCC 2998
[59] = test system: MDA-MB-435

Measured: GI50

N/C(=N\c1ccc(Cl)cc1)NS(=O)(=O)c1c(C(F)(F)F)cccc1C(F)(F)F
17 µM: [10]
inactive: [1] 24.8 µM | [2] 17.8 µM | [3] 12.6 µM | [4] 14.5 µM | [5] 29.3 µM | [6] 11.1 µM | [7] 46.5 µM | [8] 5.93 µM | [9] 10 µM | [11] 20 µM | [12] 24 µM | [13] 16.7 µM | [14] 19.8 µM | [15] 17.9 µM | [16] 16.6 µM | [17] > 100 µM | [18] 4.89 µM | [19] 16.3 µM | [20] 26.3 µM | [21] 15.6 µM | [22] 22.2 µM | [23] 22.2 µM | [24] > 100 µM | [25] 17.4 µM | [26] 27.6 µM | [27] 5.58 µM | [28] 14.5 µM | [29] 10.1 µM | [30] 12.2 µM | [31] 16.6 µM | [32] 17.5 µM | [33] 20.2 µM | [34] 20.7 µM | [35] 5.45 µM | [36] > 100 µM | [37] 45.8 µM | [38] 23.3 µM | [39] 7.85 µM | [40] 41.3 µM | [41] 62.5 µM | [42] 12.7 µM | [43] 17.5 µM | [44] 35.2 µM | [45] 16.1 µM | [46] 18.9 µM | [47] 41.8 µM | [48] > 100 µM | [49] 33.3 µM | [50] 12.5 µM | [51] 24 µM | [52] 13.5 µM | [53] 18.6 µM | [54] 8.34 µM | [55] 2.29 µM

Cc1cc(N(CCC#N)CCC#N)ccc1C(/N=N/c1ccc([N+](=O)[O-])cc1)=N\NC(=O)c1cc(Cl)ccc1C(=O)c1ccccc1
inactive: [1] 7.64 µM | [3] 15 µM | [4] 12.2 µM | [5] 19 µM | [56] 12.5 µM | [57] 2.98 µM | [6] 16.2 µM | [7] 10.9 µM | [8] 6.11 µM | [58] 13 µM | [9] 4.23 µM | [12] 18.4 µM | [14] 10.4 µM | [15] 17.4 µM | [16] 3.56 µM | [17] 9.84 µM | [18] 9.1 µM | [20] 17.5 µM | [21] 4.95 µM | [22] 11.2 µM | [59] 22.6 µM | [23] 18.9 µM | [24] 4.65 µM | [25] 13.2 µM | [26] 10 µM | [27] 13.3 µM | [28] 6.1 µM | [29] 1.87 µM | [30] 12.2 µM | [31] 4.86 µM | [32] 9.2 µM | [33] 26.1 µM | [34] 6.21 µM | [35] 6.5 µM | [36] 11 µM | [37] 13 µM | [38] 6.07 µM | [39] 14.5 µM | [41] 20.2 µM | [42] 11.1 µM | [43] 12 µM | [44] 13.5 µM | [45] 19.3 µM | [46] 46.7 µM | [47] 24.6 µM | [49] 8.65 µM | [50] 5.18 µM | [51] 16.9 µM | [52] 13.3 µM | [53] 32.2 µM | [54] 11.1 µM | [55] 10.1 µM
4.8 µM: [10]
